Test results: patent publication EP0243192B1, “Antiviral 8-Phenylxanthines” (THE WELLCOME FOUNDATION LIMITED, priority 1986, dated 1987)

Key:
[1] = standard LD50 test, intraperitoneal administration to mice; details: mouse, in vivo, ip, read-out: LD₅₀
Description: The toxicity of a representative number of compounds of the present invention was determined by using the standard LD₅₀ test.

HIV = assay: in-vitro anti-HIV assay system as described in Mitsuya et al.; type: cell-based; details: for effective concentration: concentration of the drug at which effects were seen (3µM to 30µM)
Description: The anti-HIV activity of various compounds was tested using an in-vitro assay system as described in H Mitsuya et al; (Proc Natl. Acad.Sci. USA Vol 82 pp 7096-7100, October 1985).
From the information obtained the 50% effective dose (ED₅₀ value) was estimated and the results expressed as active (+) or very active (++).

Row | Compound | LD50 [1] [mg/kg] | effective concentration (HIV) [µM] | anti-HIV activity (HIV; statement in words)
1 | CC(C)Cn1c(=O)n(C)c(=O)c2nc(-c3ccc(/C=C/C(=O)O)cc3)[nH]c21 [(E)-4-(1,2,3,6-tetrahydro-3-isobutyl-1-methyl-2,6-dioxo-9H-purin-8-yl)cinnamic acid] | > 100 |  | 
2 | CCCCn1c(=O)c2nc(-c3ccc(/C=C/C(=O)O)cc3)[nH]c2n(CCCC)c1=O [(E)-4-(1,3-dibutyl-1,2,3,6-tetrahydro-2,6-dioxo-9H-purin-8-yl)cinnamic acid] | > 100 | 30 | 
3 | O=C(O)/C=C/c1ccc(-c2nc3c(=O)n(Cc4ccccc4)c(=O)n(Cc4ccccc4)c3[nH]2)cc1 [(E)-4-(1,3-dibenzyl-1,2,3,6-tetrahydro-2,6-dioxo-9H-purin-8-yl)cinnamic acid] |  | 3 to 15 | particularly potent
4 | CC(C)Cn1c(=O)[nH]c(=O)c2nc(-c3ccc(/C=C/C(=O)O)cc3)[nH]c21 [(E)-4-(1,2,3,6-tetrahydro-3-isobutyl-2,6-dioxo-9H-purin-8-yl)cinnamic acid] | > 100 |  | 
5 | CCCn1c(=O)c2nc(-c3ccc(/C=C/C(=O)O)cc3)[nH]c2n(Cc2ccccc2)c1=O [(E)-4-(3-Benzyl-1,2,3,6-tetrahydro-2,6-dioxo-1-propyl-9H-purin-8-yl)cinnamic acid] |  | 30 | 
6 | Cn1c(=O)c2nc(-c3ccc(/C=C/C(=O)O)cc3)[nH]c2n(Cc2ccccc2)c1=O [(E)-4-(3-benzyl-1,2,3,6-tetrahydro-1-methyl-2,6-dioxo-9H-purin-8-yl)cinnamic acid] | > 100 |  | 
7 | Cn1c(=O)[nH]c(=O)c2nc(-c3ccc(/C=C/C(=O)O)cc3)[nH]c21 [(E)-4-(1,2,3,6-tetrahydro-3-methyl-2,6-dioxo-9H-purin-8-yl)cinnamic acid] | > 500 |  | 
8 | CCCCn1c(=O)n(C)c(=O)c2nc(-c3ccc(/C=C/C(=O)O)cc3)[nH]c21 [(E)-4-(3-butyl-1,2,3,6-tetrahydro-1-methyl-2,6-dioxo-9H-purin-8-yl)cinnamic acid] | > 100 |  | 
9 | CCCn1c(=O)n(Cc2ccccc2)c(=O)c2nc(-c3ccc(/C=C/C(=O)O)cc3)[nH]c21 [(E)-4-(1-Benzyl-1,2,3,6-tetrahydro-2,6-dioxo-3-propyl-9H-purin-8-yl)cinnamic acid] |  | 30 | 
